From patent publication US20130217640A1 (priority 2010, published 2013)
In brackets after ≈: the same amount, converted by molar mass.

Legend:
[1] = Solution stability study at three pD's in phosphate buffered D2O, monitored by 1H NMR; type: physicochemical; details: 23° C.; for stability in solution (in words): pD 5.0, 6.0 and 7.0, phosphate buffered D2O, protected from light; for change in 1H NMR spectra: after 167 days, pD 5.0, 6.0, 7.0 in D2O
Method: 10 mL (11.07 g) D2O was placed in 3 separate vials with a stir bar and 0.002 moles (0.272 g) monobasic potassium phosphate (KH2PO4) was added to each. With the pD metered, NaOD/D2O was added drop-wise to each to adjust the pD's to 5.0, 6.0, and 7.0. Each of these solutions was gently boiled before use. Thus each vial contained […] phosphate buffered solution. […] The sample was sterilized by heating for 10 seconds, and after it had cooled down to ambient temperature (about 1 minute), 0.3 mL of one of the 0.2 mM 3 buffered solutions was added. The 0.6 mL sample was then placed in a sterilized NMR tube and the tube sealed and labeled. Each of the samples was stored at 23° C. protected from the light and monitored by ^1H NMR (64 scans for each sample) periodically.

[2] = Water solubility of the analogs (saturated D2O solution, 1H NMR against DSS standard); type: physicochemical; details: for water solubility (in words): D2O, Table 1
Method: The method use involved stirring the sample in D2O for a period of 3 days, followed by filtration using a 0.2μ syringe filter. A measured volume of this saturated solution was diluted with a standard solution of DSS in D2O, and a ^1H NMR was taken. Integration of the DSS peaks compared to that of the analog would allow for the determination of its concentration, and thus the concentration of the saturated solution.

[3] = Pharmacokinetics after intravenous administration: pro-drug and released acetaminophen in plasma or blood; type: in vivo, male Sprague-Dawley rats; details: for half-life: male, Sprague-Dawley, plasma, 66.3 umol/kg, read-out: half life (t1/2) of the pro-drug; for half-life / half-life of the pro-drug (in words) / AUC of the pro-drug (in words): target dose 66.3 μmol/Kg, Table 4

CC(=O)Nc1ccc(O[C@@H]2C=C[C@H](O)[C@@H](CO)O2)cc1 [Compound 1, N-(4-((2R,5S,6R)-5-hydroxy-6-(hydroxymethyl)-5,6-dihydro-2H-pyran-2-yloxy)phenyl)acetamide, reference compound]
stability in solution (in words) [1]: least stable to all of the pD's

CC(=O)Nc1ccc(O[C@H]2O[C@H](CO)[C@@H](OC3O[C@H](CO)[C@@H](O)[C@H](O)[C@H]3O)[C@H](O)[C@@H]2O)cc1 (stereo partly drawn) [Compound 5, 1-(4-acetaminophenoxy) 2-epi maltose]
water solubility (in words) [2]: highest solubility of all of the analogs
change in 1H NMR spectra [1]: no change

CC(=O)Nc1ccc(O[C@H]2O[C@H](CO)[C@@H](O)[C@H](O)[C@@H]2O)cc1 [Compound 8, N-(4-((2R,3S,4S,5S,6R)-3,4,5-trihydroxy-6-(hydroxymethyl)tetrahydro-2H-pyran-2-yloxy)phenyl)acetamide]
half-life ([3]; rat, intravenous): < 1 h
half-life of the pro-drug (in words) ([3]; rat, intravenous): relatively high half-lives
change in 1H NMR spectra [1]: no change

CC(=O)Nc1ccc(O[C@@H]2CC[C@H](O)[C@@H](CO)O2)cc1 [Compound 12, 1-(4′-acetamidophenoxy) 2,3-dideoxy glucose]
stability in solution (in words) [1]: showing a lot of instability

CC(=O)Nc1ccc(O[C@H]2O[C@H](COC(C)=O)[C@@H](O)[C@H](O)[C@@H]2O)cc1 [Compound 15]
half-life ([3]; rat, intravenous): < 1 h
AUC of acetaminophen released by the pro-drug (in words) ([3]; rat, intravenous, Table 5): largest AUC value of all of the pro-drugs
AUC of the pro-drug (in words) ([3]; rat, intravenous): low values for AUC
overall characteristics (water solubility, release of acetaminophen, AUC) ([3]; summary statement): best combination of water solubility, quick release of the acetaminophen, and AUC

CCCC(=O)OC[C@H]1O[C@H](Oc2ccc(NC(C)=O)cc2)C=C[C@@H]1O [Compound 16, 1-(4′-acetamidophenoxy)-6-O-butyryl-2,3-dideoxy 2,3-didehydro glucose]
water solubility (in words) [2]: excellent solubility

CCCC(=O)OC[C@H]1O[C@H](Oc2ccc(NC(C)=O)cc2)[C@@H](O)[C@@H](O)[C@@H]1O [Compound 18, 1-(4′-acetamidophenoxy)-6-O-butyrylmannose]
half-life ([3]; rat, intravenous): < 1 h
AUC of the pro-drug (in words) ([3]; rat, intravenous): low values for AUC

CC(=O)Nc1ccc(O[C@H]2O[C@H](COC(=O)C(C)C)[C@@H](O)[C@H](O)[C@@H]2O)cc1 [Compound 19, 1-(4′-acetamidophenoxy)-6-O-isobutyrylmannose]
half-life ([3]; rat, intravenous): < 1 h
AUC of the pro-drug (in words) ([3]; rat, intravenous): low values for AUC

CC(=O)Nc1ccc(O[C@H]2O[C@H](COC(=O)CCC(=O)O)[C@@H](O)[C@H](O)[C@@H]2O)cc1 [Compound 20]
AUC of the pro-drug (in words) ([3]; rat, intravenous): high AUC values
half-life of the pro-drug (in words) ([3]; rat, intravenous): relatively high half-lives

CC(=O)Nc1ccc(O[C@H]2O[C@H](C)[C@@H](O)[C@H](O)[C@@H]2O)cc1 [Compound 23, 1-(4′-acetamidophenoxy)-6-deoxymannose]
AUC of the pro-drug (in words) ([3]; rat, intravenous): high AUC values
half-life of the pro-drug (in words) ([3]; rat, intravenous): relatively high half-lives

CC(=O)Nc1ccc(O)cc1 [acetaminophen, reference compound]
water solubility ([2]; stirred in D2O for 3 days, filtered 0.2μ, 1H NMR integration vs DSS): 13 mg/mL (≈ 86 mM)
change in 1H NMR spectra [1]: no change
